# Columns and labels:
# [1] = system: Staphylococcus aureus subsp. aureus str. strain Newman; experiment: Preliminary screening assay of inhibition of staphyloxanthin synthesis; format: cell-based
# Procedure: Strains used for assay: freshly activated wild-type Staphylococcus aureus subsp. aureus str. strain Newman and its homologous mutant strain having crtN insertion (without staphyloxanthin synthesis).
# Medium for assay: Tryptone Soy broth (TSB), a product from Oxid Corporation, the United Kingdom, which was formulated with distilled water, sterilized at 121° C. for 15 min for later use.
# Method of Preliminary Screening Assay:
# (1) Preparation of compound: the compound of the invention was dissolved in dimethyl sulfoxide (DMSO) to prepare a stock solution having a concentration of 10 mM; 400 μL of DMSO was added to 100 μL of the stock solution to get a dilution with a concentration of 2 mM; 250 μL (2 mM) of the dilution was taken after mixing, and an equal amount of DMSO was added thereto for 2-fold dilution to get a solution with a concentration of […] for later use.
# (2) Culture of the strain: single colonies of strain Newman were picked from TSA plates into a test tube containing 4 mL of sterile TSB medium, and cultured at 37° C. and 250 rpm for 12 h for later use.
# CrtN = CrtN (Staphylococcus aureus, UniProt O07855); experiment: biochemical
# Procedure: (1) Preparation of Diapophytoene Emulsion as Substrate […]
# After completion of the reaction, the reaction was terminated by adding 500 μL of methanol, and the reaction solution was transferred to a 15 mL centrifuge tube; the reaction solution was added with 700 μL of chloroform, and vortexed thoroughly to extract the reacted staphyloxanthin, and then centrifuged at 7000 rpm for 3 min, and the chloroform layer was carefully pipetted; the remaining reaction solution was extracted by further adding 500 μL of chloroform thereto, and the extracts were combined and concentrated to dryness under vacuum; the concentrated product was dissolved by adding 200 μL of chloroform, and pipetted into a 96-well microplate, and then the absorbance was measured at 450 nm for quantification of the CrtN product diaponeurosporene.
# S. aureus = experiment: Hydrogen peroxide killing assay; format: cell-based, Staphylococcus aureus; details: four strains, 1.5% hydrogen peroxide, 1 h
# From the text: Compound IA-25 was used as a representative compound. The main object of the invention was to impair the ability of bacteria to resist immunological killing in vivo by inhibiting staphyloxanthins synthesis.
# The calculated survival rate of bacteria after hydrogen peroxide killing=(count of bacteria grown in sample after hydrogen peroxide killing×dilution factor)/(count of bacteria grown in control group×dilution factor)×100%.
# LRSA202 = experiment: In vivo pharmacodynamics evaluation in infected mice; details: BALB/c mice infected retroorbitally with LRSA202
# Procedure: (§1) Compound IA-25 was used as a representative compound. The laboratory SPF-grade female BALB/c mice were purchased from Shanghai Jiesijie Laboratory Animal Co., Ltd. and bred under aseptic condition to 6-8 weeks old. The S. aureus strains which had been cultured overnight were transferred to fresh and sterile TSB medium and cultured at 37° C. and 250 rpm for 3 h to exponential growth phase; the culture was washed twice with PBS buffer, and then suspended in PBS for later use. In the mouse infection assay, the mice were divided into several groups, each containing 10 mice.
# LRSA56 = experiment: as above; details: BALB/c mice infected retroorbitally with LRSA56
# Procedure: as §1
# Mu50 = experiment: as above; details: BALB/c mice infected retroorbitally with Mu50
# Procedure: as §1
# NF65Y = experiment: as above; details: BALB/c mice infected retroorbitally with NF65Y
# Procedure: as §1
# NRS108 = experiment: as above; details: BALB/c mice infected retroorbitally with NRS108
# Procedure: as §1
# NRS271 = experiment: as above; details: BALB/c mice infected retroorbitally with NRS271
# Procedure: as §1
# strain Newman = experiment: as above; details: BALB/c mice infected retroorbitally with Newman
# Procedure: as §1
# CYP enzyme subtype 3A4T = CYP enzyme subtype 3A4T (Homo sapiens, UniProt P08684); experiment: Inhibition assay on hepatic CYP450 enzyme; format: in vitro ADME; details: CYP 3A4T; read-out: Half inhibitory concentration (IC50)
# Sequence of CYP enzyme subtype 3A4T (P08684 whole entry): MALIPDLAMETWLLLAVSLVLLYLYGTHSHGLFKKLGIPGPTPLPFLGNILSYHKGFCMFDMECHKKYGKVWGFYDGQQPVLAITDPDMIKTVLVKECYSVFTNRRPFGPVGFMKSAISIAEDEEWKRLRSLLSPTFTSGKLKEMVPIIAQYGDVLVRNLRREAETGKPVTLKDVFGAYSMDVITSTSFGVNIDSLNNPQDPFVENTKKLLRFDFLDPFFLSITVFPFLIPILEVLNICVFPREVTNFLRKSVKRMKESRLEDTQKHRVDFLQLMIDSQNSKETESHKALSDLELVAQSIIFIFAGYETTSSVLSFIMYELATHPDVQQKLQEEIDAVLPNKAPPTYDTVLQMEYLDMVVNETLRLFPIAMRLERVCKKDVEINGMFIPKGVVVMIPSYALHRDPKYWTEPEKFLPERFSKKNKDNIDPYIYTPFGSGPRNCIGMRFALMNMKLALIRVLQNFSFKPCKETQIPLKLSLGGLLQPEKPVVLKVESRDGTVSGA
# Sequence of CrtN (O07855 whole entry): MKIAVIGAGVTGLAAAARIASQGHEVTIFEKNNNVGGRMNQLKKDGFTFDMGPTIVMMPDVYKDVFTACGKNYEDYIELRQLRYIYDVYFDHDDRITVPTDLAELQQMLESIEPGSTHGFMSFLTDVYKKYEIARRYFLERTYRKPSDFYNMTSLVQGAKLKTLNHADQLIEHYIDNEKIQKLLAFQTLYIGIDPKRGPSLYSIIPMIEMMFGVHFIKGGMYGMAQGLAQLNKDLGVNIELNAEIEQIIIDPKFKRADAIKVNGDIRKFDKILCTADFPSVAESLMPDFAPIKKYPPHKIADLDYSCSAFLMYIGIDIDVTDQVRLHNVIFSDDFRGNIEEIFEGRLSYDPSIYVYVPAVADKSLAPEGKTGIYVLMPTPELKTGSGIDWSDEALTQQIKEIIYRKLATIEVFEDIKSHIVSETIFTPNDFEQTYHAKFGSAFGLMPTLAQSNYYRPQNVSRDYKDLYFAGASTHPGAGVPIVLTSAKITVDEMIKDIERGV
smiles,measurement,setting,value
"CN(C/C=C/c1ccc(-c2ccccc2)cc1)Cc1coc2ccccc12 [Compound IA-25, (E)-N-methyl-N-[(benzofuran-3-yl)methylene]-3-(4-phenylphenyl)-prop-2-en-1-amine]",colors in final photograph of inhibition of staphyloxanthin synthesis,"[1]; 50, 10, 5, 2.5, 1.25, 0.625, 0.3125 and 0 μM from left to right",white to yellow from left to right gradually
same,concentration at which staphyloxanthin synthesis is significantly inhibited,"[1]; strain Newman, 24 h culture, lowest concentration tested",≤ 0.3125 µM
same,IC50,CrtN,373 nM
same,bacterial survival rate after hydrogen peroxide killing,S. aureus,less than 5%
same,Viable colony counts in vivo,LRSA202,4.9 Log10CFU
same,Viable colony counts in vivo,LRSA56,3.3 Log10CFU
same,Viable colony counts in vivo,Mu50,2.7 Log10CFU
same,Viable colony counts in vivo,NF65Y,3.5 Log10CFU
same,Viable colony counts in vivo,NRS108,2.3 Log10CFU
same,Viable colony counts in vivo,NRS271,6.4 Log10CFU
same,Viable colony counts in vivo,strain Newman,3.8 Log10CFU
same,IC50,CYP enzyme subtype 3A4T,> 10000 nM
same,bioavailability,in vivo,15 to 45%
